The target in assay [1] is Recombinant human Hsp90 protein. In words: Hsp90 ATPase activity assay. The assay is classed as biochemical. Conditions: ADP detection, ATP 100 μM. From the text:
Lianru Zhang, Brian S. J. Blagg, et al. reported that GA inhibited Hsp90 ATPase in vitro[21][38]. The effects of these compounds on Hsp90 ATPase activity were examined by measuring the ability of Hsp90 to hydrolyse ATP using a homogeneous time-resolved fluorescence (HTRF) assay to determine whether the caged-xanthone-derivatives of GA inhibited Hsp90. […] The inhibition of Hsp90 could decrease client protein levels. Based on the enzymatic, structural, and antiproliferative results, 8n was chosen for further investigation.
Figure 9 (A) The caged compounds (50 μM) inhibited the Hsp90 ATPase activity in a HTRF-based inhibition assay. (B) The IC50 values for the inhibition of Hsp90 ATPase by 8n, 8o and GA as detected by the HTRF Transcreener ADP kit. […] The amount of ADP generated was detected. […] (D) The mRNA expression of VEGF was determined by real-time quantitative reverse-transcriptase polymerase chain reaction (RT-PCR) and analysed by the delta Ct method. […]
To measure the Hsp90 ATPase activity, a ADP Hunter Plus Assay kit from DiscoverX was used as previously described. […] Then, the plate was incubated for another 0.5 h after the addition of ATP (100 μM), followed by addition of the detection reagent, and the fluorescence was measured at an excitation wavelength 540 nm and emission wavelength of 620 nm using a spectrophotometer (Varioskan multimode, Thermo). […]

Details of assay [2]: method as in PMID 23167526. Conditions: cited from earlier work.
The subject of assay [3] is Heps tumour. Further details: method as in PMID 25958244. Conditions: Heps-transplanted mice, intravenous (IV) administration; cited from earlier work.

One may read the IC50 as the point on the concentration scale where inhibition reaches its midpoint.

Consider `CO[C@H]1/C=C\C=C(/C)C(=O)NC2=CC(=O)C(NCCN(C)C)=C(C[C@@H](C)C[C@H](OC)[C@H](O)[C@@H](C)/C=C(\C)[C@@H]1OC(N)=O)C2=O` [Compound 17-DMAG, 17-(Dimethylaminoethylamino)-17-demethoxygeldanamycin], for which the concentration for half-maximal inhibition (IC50) in assay [1] was 919 nM.
In the case of `CC(C)=CCC12OC(C)(C)C3[C@@H](CN4CCN(C)CC4)C(C=C4C(=O)c5c(O)cccc5OC431)C2=O` (stereo partly drawn) [DDO-6267], the “oral antitumor activity compared with GA” value in assay [2] is on record as “better oral antitumor activity than GA”.
Take `C/C(=C\CC12OC(C)(C)C3CC(C=C4C(=O)c5c(O)cccc5OC431)C2=O)COC(=O)CN(C)C` (stereo not drawn) [DDO-6306]: in assay [3], the “inhibition of tumour growth” value is 52.6%.
